In patent US20260070945A1, “MACROCYCLIC IMMUNOMODULATORS” (Bristol-Myers Squibb Company, priority 2022, published 2026):
Where a SMILES comes first, the peptide text is derived from it. Bridges are numbered along the chain shown (N, C = ends). [ ]: non-standard residue; d: D form. The star is where a group is joined. ξ: configuration not given here. Phe(4-COOH) = N[C@@H](Cc1ccc(C(=O)O)cc1)C(=O)O; Bip = N[C@@H](Cc1ccc(-c2ccccc2)cc1)C(=O)O; Phe(3-Me) = Cc1cccc(C[C@H](N)C(=O)O)c1; Cha = N[C@@H](CC1CCCCC1)C(=O)O; Cit = NC(=O)NCCC[C@H](N)C(=O)O; Ile(3ξ) = CCC(C)[C@H](N)C(=O)O; Thr(3ξ) = CC(O)[C@H](N)C(=O)O; Carboxymethyl = O=C(O)C*; NMeA = CN[C@@H](C)C(=O)O; Aun = NCCCCCCCCCCC(=O)O; Dab = NCC[C@H](N)C(=O)O; AEEA = NCCOCCOCC(=O)O

molecular target: T1, PD-1/PD-L1 interaction (PE-labeled human PD-L1-Ig binding to Jurkat cell line over-expressing human PD-1) (Homo sapiens, UniProt Q15116); experiment: Jurkat-PD-1 Cell Binding High-Content Screening Assay (CBA); settings: Jurkat-hPD-1 cells, PE-labeled PD-L1-Ig 20 nM final; read-out: Jurkat HPD1 PDL1 IC50
T1 construct: expressed in transfected cells; host or cells: Jurkat
Method in brief: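 In this imaging assay, cells in 10% FCS medium see compound for 2 h at 37 °C and then labeled ligand at 20 nM final for 1 h. Paraformaldehyde fixation, Hoechst 33342 staining and dPBS washes precede image capture.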

T1 sequence (Q15116 25-288): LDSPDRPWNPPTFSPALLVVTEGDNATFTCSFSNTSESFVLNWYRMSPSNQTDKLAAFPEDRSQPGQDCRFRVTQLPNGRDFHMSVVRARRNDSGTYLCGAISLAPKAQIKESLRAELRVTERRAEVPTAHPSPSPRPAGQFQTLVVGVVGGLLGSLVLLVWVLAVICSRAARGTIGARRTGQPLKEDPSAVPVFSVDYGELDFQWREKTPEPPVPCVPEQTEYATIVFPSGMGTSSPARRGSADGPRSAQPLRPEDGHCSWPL

`CC(=O)NCCCC[C@@H]1NC(=O)[C@H](Cc2ccc(-c3ccccc3)cc2)NC(=O)[C@H](CC(C)C)NC(=O)[C@H](Cc2cccc(C)c2)NC(=O)[C@H](CC(=O)O)NC(=O)[C@H](Cc2ccc(C(=O)O)cc2)NC(=O)[C@H](Cc2ccc(OCC(=O)O)cc2)NC(=O)CSC[C@@H](C(=O)NCCOCCOCC(=O)NCCCCCCCCCCC(=O)O)NC(=O)[C@H](C(C)O)NC(=O)[C@H](C(C)C)NC(=O)[C@H](CC2CCCCC2)NC(=O)[C@H](CCN)NC(=O)[C@@H](CC(C)C)NC(=O)[C@H](C)N(C)C1=O` (stereo partly drawn) [Example 2282] ({CH2CO}-Y(Carboxymethyl)[Phe(4-COOH)]D[Phe(3-Me)]L[Bip]K(Ac)[NMeA][dL][Dab][Cha]V[Thr(3ξ)]C[AEEA][Aun]-OH; thioether N-14) was tested. Which IC50 did it give?
The IC50 was 0.0353 µM.

`CC(=O)NCCCC[C@@H]1NC(=O)[C@H](Cc2ccc(-c3ccccc3)cc2)NC(=O)[C@H](C(C)C)NC(=O)[C@H](Cc2cccc(C)c2)NC(=O)[C@H](CC(=O)O)NC(=O)[C@H](Cc2ccc(C(=O)O)cc2)NC(=O)[C@H](Cc2ccc(OCC(=O)O)cc2)NC(=O)CSC[C@@H](C(=O)NCCOCCOCC(=O)NCCCCCCCCCCC(=O)O)NC(=O)[C@H](C(C)O)NC(=O)[C@H](C(C)C)NC(=O)[C@H](CC2CCCCC2)NC(=O)[C@H](CCN)NC(=O)[C@@H](CC(C)C)NC(=O)[C@H](C)N(C)C1=O` (stereo partly drawn) [Example 2283] ({CH2CO}-Y(Carboxymethyl)[Phe(4-COOH)]D[Phe(3-Me)]V[Bip]K(Ac)[NMeA][dL][Dab][Cha]V[Thr(3ξ)]C[AEEA][Aun]-OH; thioether N-14) was tested. Which IC50 did it give?
Its IC50 is 0.0205 µM.

Which IC50 does the source give for `Cc1cccc(C[C@@H]2NC(=O)[C@H](CC(=O)O)NC(=O)[C@H](Cc3ccc(C(=O)O)cc3)NC(=O)[C@H](Cc3ccc(OCC(=O)O)cc3)NC(=O)CSC[C@@H](C(=O)NCCOCCOCC(=O)NCCCCCCCCCCC(=O)O)NC(=O)[C@H](C(C)O)NC(=O)[C@H](C(C)C)NC(=O)[C@H](CC3CCCCC3)NC(=O)[C@H](CCN)NC(=O)[C@@H](CC(C)C)NC(=O)[C@H](C)N(C)C(=O)[C@H](CCC(N)=O)NC(=O)[C@H](Cc3ccc(-c4ccccc4)cc3)NC(=O)[C@H](C(C)C)NC2=O)c1` (stereo partly drawn) [Example 2284] ({CH2CO}-Y(Carboxymethyl)[Phe(4-COOH)]D[Phe(3-Me)]V[Bip]Q[NMeA][dL][Dab][Cha]V[Thr(3ξ)]C[AEEA][Aun]-OH; thioether N-14) here?
Its IC50 is 0.0236 µM.

How did the IC50 turn out when `CC(C)C[C@@H]1NC(=O)[C@H](Cc2c[nH]c3ccccc23)NC(=O)[C@H](CC(=O)O)NC(=O)[C@H](Cc2ccc(C(=O)O)cc2)NC(=O)[C@H](Cc2ccc(OCC(=O)O)cc2)NC(=O)CSC[C@@H](C(=O)NCCOCCOCC(=O)NCCCCCCCCCCC(=O)O)NC(=O)[C@H](C(C)O)NC(=O)[C@H](C(C)C)NC(=O)[C@H](CC2CCCCC2)NC(=O)[C@H](CCN)NC(=O)[C@@H](CC(C)C)NC(=O)[C@H](C)N(C)C(=O)[C@H](CCC(N)=O)NC(=O)[C@H](Cc2ccc(-c3ccccc3)cc2)NC1=O` (stereo partly drawn) [Example 2285] ({CH2CO}-Y(Carboxymethyl)[Phe(4-COOH)]DWL[Bip]Q[NMeA][dL][Dab][Cha]V[Thr(3ξ)]C[AEEA][Aun]-OH; thioether N-14) was run?
The IC50 was 0.0489 µM.

With `Cc1cccc(C[C@@H]2NC(=O)[C@H](CC(=O)O)NC(=O)[C@H](Cc3ccc(C(=O)O)cc3)NC(=O)[C@H](Cc3ccc(OCC(=O)O)cc3)NC(=O)CSC[C@@H](C(=O)NCCOCCOCC(=O)NCCCCCCCCCCC(=O)O)NC(=O)[C@H](CCCNC(N)=O)NC(=O)[C@H](C(C)C)NC(=O)[C@H](CC3CCCCC3)NC(=O)[C@H](CCN)NC(=O)[C@@H](CC(C)C)NC(=O)[C@H](C)N(C)C(=O)[C@H](C(C)C)NC(=O)[C@H](Cc3ccc(-c4ccccc4)cc3)NC(=O)[C@H](CC(C)C)NC2=O)c1` [Example 2286] ({CH2CO}-Y(Carboxymethyl)[Phe(4-COOH)]D[Phe(3-Me)]L[Bip]V[NMeA][dL][Dab][Cha]V[Cit]C[AEEA][Aun]-OH; thioether N-14) as the compound, how does the IC50 read?
The IC50 was 0.0274 µM.

With `CCC(C)[C@@H]1NC(=O)[C@H](Cc2ccc(-c3ccccc3)cc2)NC(=O)[C@H](C(C)C)NC(=O)[C@H](Cc2c[nH]c3ccccc23)NC(=O)[C@H](CC(=O)O)NC(=O)[C@H](Cc2ccc(OCC(=O)O)cc2)NC(=O)[C@H](Cc2ccc(OCC(=O)O)cc2)NC(=O)CSC[C@@H](C(=O)N[C@H](CC(N)=O)C(=O)NCCCCCCCCCCC(=O)O)NC(=O)[C@H](CCCNC(=N)N)NC(=O)[C@H](C(C)C)NC(=O)[C@H](CC2CCCCC2)NC(=O)[C@H](CCN)NC(=O)[C@@H](CC(C)C)NC(=O)[C@H](C)N(C)C1=O` (stereo partly drawn) [Example 2287] ({CH2CO}-Y(Carboxymethyl)Y(Carboxymethyl)DWV[Bip][Ile(3ξ)][NMeA][dL][Dab][Cha]VRC[dN][Aun]-OH; thioether N-14) as the compound, how does the IC50 read?
The IC50 was 0.0179 µM.

With `CCC(C)[C@@H]1NC(=O)[C@H](Cc2ccc(-c3ccccc3)cc2)NC(=O)[C@H](C(C)C)NC(=O)[C@H](Cc2cccc(C)c2)NC(=O)[C@H](CC(=O)O)NC(=O)[C@H](Cc2ccc(OCC(=O)O)cc2)NC(=O)[C@H](CCCNC(=N)N)NC(=O)CSC[C@@H](C(=O)N[C@H](CC(N)=O)C(=O)NCCCCCCCCCCC(=O)O)NC(=O)[C@H](CCCNC(N)=O)NC(=O)[C@H](C(C)C)NC(=O)[C@H](CC2CCCCC2)NC(=O)[C@H](CCN)NC(=O)[C@@H](CC(C)C)NC(=O)[C@H](C)N(C)C1=O` (stereo partly drawn) [Example 2288] ({CH2CO}-RY(Carboxymethyl)D[Phe(3-Me)]V[Bip][Ile(3ξ)][NMeA][dL][Dab][Cha]V[Cit]C[dN][Aun]-OH; thioether N-14) as the compound, how does the IC50 read?
The IC50 was 0.0129 µM.

With `CC(=O)NCCCC[C@@H]1NC(=O)[C@H](Cc2ccc(-c3ccccc3)cc2)NC(=O)[C@H](C(C)C)NC(=O)[C@H](Cc2cccc(C)c2)NC(=O)[C@H](CC(=O)O)NC(=O)[C@H](Cc2ccc(OCC(=O)O)cc2)NC(=O)[C@H](CCCNC(=N)N)NC(=O)CSC[C@@H](C(=O)NCCOCCOCC(=O)NCCCCCCCCCCC(=O)O)NC(=O)[C@H](C(C)O)NC(=O)[C@H](C(C)C)NC(=O)[C@H](CC2CCCCC2)NC(=O)[C@H](CCN)NC(=O)[C@@H](CC(C)C)NC(=O)[C@H](C)N(C)C1=O` (stereo partly drawn) [Example 2289] ({CH2CO}-RY(Carboxymethyl)D[Phe(3-Me)]V[Bip]K(Ac)[NMeA][dL][Dab][Cha]V[Thr(3ξ)]C[AEEA][Aun]-OH; thioether N-14) as the compound, how does the IC50 read?
The IC50 was 0.0075 µM.

`CC(C)C[C@H]1NC(=O)[C@H](C)N(C)C(=O)[C@H](C(C)C)NC(=O)[C@H](Cc2ccc(-c3ccccc3)cc2)NC(=O)[C@H](C(C)C)NC(=O)[C@H](Cc2c[nH]c3ccccc23)NC(=O)[C@H](CC(=O)O)NC(=O)[C@H](Cc2ccc(C(=O)O)cc2)NC(=O)[C@H](Cc2ccc(OCC(=O)O)cc2)NC(=O)CSC[C@@H](C(=O)N[C@@H](CCN)C(=O)NCCCCCCCCCCC(=O)O)NC(=O)[C@H](CCCNC(N)=O)NC(=O)[C@H](C(C)C)NC(=O)[C@H](CC2CCCCC2)NC(=O)[C@H](CCN)NC1=O` [Example 2290] ({CH2CO}-Y(Carboxymethyl)[Phe(4-COOH)]DWV[Bip]V[NMeA][dL][Dab][Cha]V[Cit]C[Dab][Aun]-OH; thioether N-14) was tested. Which IC50 did it give?
The IC50 was 0.018 µM.

Which IC50 does the source give for `CC(C)C[C@@H]1NC(=O)[C@H](Cc2c[nH]c3ccccc23)NC(=O)[C@H](CC(=O)O)NC(=O)[C@H](Cc2ccc(OCC(=O)O)cc2)NC(=O)[C@H](C(C)O)NC(=O)CSC[C@@H](C(=O)NCCOCCOCC(=O)NCCCCCCCCCCC(=O)O)NC(=O)[C@H](CCC(=O)O)NC(=O)[C@H](C(C)C)NC(=O)[C@H](CC2CCCCC2)NC(=O)[C@H](CCN)NC(=O)[C@@H](CC(C)C)NC(=O)[C@H](C)N(C)C(=O)[C@H](C(C)C)NC(=O)[C@H](Cc2ccc(-c3ccccc3)cc2)NC1=O` (stereo partly drawn) [Example 2291] ({CH2CO}-[Thr(3ξ)]Y(Carboxymethyl)DWL[Bip]V[NMeA][dL][Dab][Cha]VEC[AEEA][Aun]-OH; thioether N-14) here?
The IC50 was 0.0289 µM.

With `Cc1cccc(C[C@@H]2NC(=O)[C@H](CC(=O)O)NC(=O)[C@H](Cc3ccc(C(=O)O)cc3)NC(=O)[C@H](Cc3ccc(OCC(=O)O)cc3)NC(=O)CSC[C@@H](C(=O)N[C@@H](CCN)C(=O)NCCCCCCCCCCC(=O)O)NC(=O)[C@H](CCC(=O)O)NC(=O)[C@H](C(C)C)NC(=O)[C@H](CC3CCCCC3)NC(=O)[C@H](CCN)NC(=O)[C@@H](CC(C)C)NC(=O)[C@H](C)N(C)C(=O)[C@H](C(C)C)NC(=O)[C@H](Cc3ccc(-c4ccccc4)cc3)NC(=O)[C@H](CC(C)C)NC2=O)c1` [Example 2293] ({CH2CO}-Y(Carboxymethyl)[Phe(4-COOH)]D[Phe(3-Me)]L[Bip]V[NMeA][dL][Dab][Cha]VEC[Dab][Aun]-OH; thioether N-14) as the compound, how does the IC50 read?
The IC50 was 0.0202 µM.

How did the IC50 turn out when `Cc1cccc(C[C@@H]2NC(=O)[C@H](CC(=O)O)NC(=O)[C@H](Cc3ccc(C(=O)O)cc3)NC(=O)[C@H](Cc3ccc(OCC(=O)O)cc3)NC(=O)CSC[C@@H](C(=O)N[C@@H](CCN)C(=O)NCCCCCCCCCCC(=O)O)NC(=O)[C@H](CCCNC(N)=O)NC(=O)[C@H](C(C)C)NC(=O)[C@H](CC3CCCCC3)NC(=O)[C@H](CCN)NC(=O)[C@@H](CC(C)C)NC(=O)[C@H](C)N(C)C(=O)[C@H](C(C)C)NC(=O)[C@H](Cc3ccc(-c4ccccc4)cc3)NC(=O)[C@H](CC(C)C)NC2=O)c1` [Example 2294] ({CH2CO}-Y(Carboxymethyl)[Phe(4-COOH)]D[Phe(3-Me)]L[Bip]V[NMeA][dL][Dab][Cha]V[Cit]C[Dab][Aun]-OH; thioether N-14) was run?
Its IC50 is 0.0199 µM.

How did the IC50 turn out when `CC(=O)NCCCC[C@@H]1NC(=O)[C@H](Cc2ccc(-c3ccccc3)cc2)NC(=O)[C@H](C(C)C)NC(=O)[C@H](Cc2cccc(C)c2)NC(=O)[C@H](CC(=O)O)NC(=O)[C@H](Cc2ccc(C(=O)O)cc2)NC(=O)[C@H](Cc2ccc(OCC(=O)O)cc2)NC(=O)CSC[C@@H](C(=O)NCCOCCOCC(=O)NCCCCCCCCCCC(=O)O)NC(=O)[C@H](CCCNC(N)=O)NC(=O)[C@H](C(C)C)NC(=O)[C@H](CC2CCCCC2)NC(=O)[C@H](CCN)NC(=O)[C@@H](CC(C)C)NC(=O)[C@H](C)N(C)C1=O` [Example 2295] ({CH2CO}-Y(Carboxymethyl)[Phe(4-COOH)]D[Phe(3-Me)]V[Bip]K(Ac)[NMeA][dL][Dab][Cha]V[Cit]C[AEEA][Aun]-OH; thioether N-14) was run?
The IC50 was 0.0103 µM.
